Measured values taken from patent US20260069588A1, “VEPDEGESTRANT FOR USE IN TREATING CANCER” (Arvinas Operation, Inc., priority 2022, published 2026).
Converted amounts (≈) assume the structure as drawn.

Legend:
Ikaros = Ikaros (Homo sapiens, UniProt Q13422); assay: Cereblon neomorphic substrate degradation, Ikaros; format: cell-based; details: in vitro
From the text: (§1) These drugs bind to cereblon and promote the degradation of novel (neomorphic) substrates.

[1] = 28-day GLP oral toxicity study in dogs; format: in vivo; details: dog
From the text: There were no mortalities and no Compound A-related clinical observations, changes in BW or food consumption or ophthalmic observations. There were no ARV-471-related ECG abnormalities observed, including no effects on PR-interval, QRS duration, QT or QTc intervals, or heart rate and no arrhythmias or abnormal waveforms.

[2] = Biopharmaceutics Classification System; format: physicochemical; details: low solubility/low permeability
ER [3] = assay: ER expression in paired tumor biopsies (FIH Part A); format: in vivo, human; details: 14 paired biopsies, doses up to 500 mg QD, WT or mutant ER
[4] = Plasma protein binding, rat; format: in vitro ADME; details: read-out: free fraction
[5] = Solubility in phosphate buffer; format: physicochemical; details: aqueous buffer; phosphate buffer at pH 7.4
[6] = tested on: BALB/c 3T3 mouse fibroblasts; assay: In vitro 3T3 phototoxicity; format: cell-based
Aiolos = Aiolos (Homo sapiens, UniProt Q9UKT9); assay: Cereblon neomorphic substrate degradation, Aiolos; format: cell-based; details: in vitro
From the text: as §1

[7] = 3-month GLP oral toxicity study in dogs; format: in vivo, dog; details: for Cmax / AUC(0-t): plasma, po, Day 91; for AUC(0-t): read-out: AUC0-24
Experimental: Male and female Beagle dogs, 4/sex/group, were administered 0 (vehicle), 10, 30, or 90 mg/kg/day. Assessment of toxicity was based on clinical observations, BWs, food consumption, ophthalmology, ECG evaluations, and clinical and anatomic pathology.

[8] = Clinical Pharmacology Study: single 200 mg dose PK, all 3 cohorts; details: human, in vivo, oral
Experimental: The geometric mean T1/2 following a single 200 mg dose was approximately 40 hours under fed condition.

[9] = Interconversion (epimerization) Compound A/Compound B in animals; format: in vivo, mouse, rat, dog, and monkey; details: monkey
[10] = in vivo
From the text: TEAE's from participants in both studies have been combined and are described below.

ER [11] = target: T1, ER (Homo sapiens, UniProt P03372); assay: ER degradation in ER+ cell lines (MCF7); format: cell-based; design: endogenous in cells; host or cells: MCF7 (and a panel of unnamed ER+ cell lines); details: MCF7 cells
T1 sequence (P03372 1-595): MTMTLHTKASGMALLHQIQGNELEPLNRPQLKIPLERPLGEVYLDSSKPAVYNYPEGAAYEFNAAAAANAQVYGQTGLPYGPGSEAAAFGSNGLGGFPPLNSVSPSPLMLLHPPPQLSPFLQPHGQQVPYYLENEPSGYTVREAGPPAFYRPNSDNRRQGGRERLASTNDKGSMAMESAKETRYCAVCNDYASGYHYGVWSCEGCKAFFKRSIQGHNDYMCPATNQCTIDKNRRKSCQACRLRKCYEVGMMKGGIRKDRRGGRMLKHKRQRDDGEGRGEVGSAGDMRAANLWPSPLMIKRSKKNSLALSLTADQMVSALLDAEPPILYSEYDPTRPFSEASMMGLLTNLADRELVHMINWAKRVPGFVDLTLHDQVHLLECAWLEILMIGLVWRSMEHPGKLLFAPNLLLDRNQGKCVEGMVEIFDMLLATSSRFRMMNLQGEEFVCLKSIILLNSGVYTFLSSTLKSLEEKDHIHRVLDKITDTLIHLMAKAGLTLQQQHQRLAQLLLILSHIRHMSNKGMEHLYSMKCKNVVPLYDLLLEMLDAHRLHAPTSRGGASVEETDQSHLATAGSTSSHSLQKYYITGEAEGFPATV

clinical = details: human, in vivo; for AUC: AUCtau
Experimental: Study Design: In the FIH Study: Part A is a Phase I monotherapy dose escalation, and Part B is a Phase 2 monotherapy expansion at 2 RP2D doses (200 mg QD, 500 mg QD).

hERG channel = hERG channel (Homo sapiens, UniProt Q12809); assay: hERG channel inhibition; format: biochemical
Experimental: The pivotal nonclinical safety studies were conducted in the US in accordance with GLP regulations per the US 21 CFR Part 58. These include the cardiovascular safety pharmacology study in dogs, the pivotal 28-day and 3-month repeat-dose toxicology studies in rats and dogs, and an in vitro phototoxicity assay. The bacterial reverse mutation assay, in vitro micronucleus assay, and 2 in vitro hERG studies were conducted in the UK in accordance with the UK Good Laboratory Practice Monitoring Authority, MHRA: Good Laboratory Practice Regulations 1999, Statutory Instrument 1999 No. 3106 as amended by the Good Laboratory Practice (Codification Amendments Etc.) Regulations, 2004, Statutory Instrument 2004, No. 994; and the OECD GLP and OECD Principles on Good Laboratory Practice ENV/MC/CHEM (98) 17 (Revised in 1997, Issued January 1998).accordance with the OECD Principles of Good Laboratory Practice and as accepted by Regulatory Authorities throughout the European Union, United States of America (FDA), Japan (MHLW), and other countries that are signatories to the OECD Mutual Acceptance of Data Agreement.

[12] = Beagle, dog, female dogs, 90 mg/kg/day
[13] = Beagle, dog, male dogs, 90 mg/kg/day

hERG channel, sequence (Q12809 whole entry): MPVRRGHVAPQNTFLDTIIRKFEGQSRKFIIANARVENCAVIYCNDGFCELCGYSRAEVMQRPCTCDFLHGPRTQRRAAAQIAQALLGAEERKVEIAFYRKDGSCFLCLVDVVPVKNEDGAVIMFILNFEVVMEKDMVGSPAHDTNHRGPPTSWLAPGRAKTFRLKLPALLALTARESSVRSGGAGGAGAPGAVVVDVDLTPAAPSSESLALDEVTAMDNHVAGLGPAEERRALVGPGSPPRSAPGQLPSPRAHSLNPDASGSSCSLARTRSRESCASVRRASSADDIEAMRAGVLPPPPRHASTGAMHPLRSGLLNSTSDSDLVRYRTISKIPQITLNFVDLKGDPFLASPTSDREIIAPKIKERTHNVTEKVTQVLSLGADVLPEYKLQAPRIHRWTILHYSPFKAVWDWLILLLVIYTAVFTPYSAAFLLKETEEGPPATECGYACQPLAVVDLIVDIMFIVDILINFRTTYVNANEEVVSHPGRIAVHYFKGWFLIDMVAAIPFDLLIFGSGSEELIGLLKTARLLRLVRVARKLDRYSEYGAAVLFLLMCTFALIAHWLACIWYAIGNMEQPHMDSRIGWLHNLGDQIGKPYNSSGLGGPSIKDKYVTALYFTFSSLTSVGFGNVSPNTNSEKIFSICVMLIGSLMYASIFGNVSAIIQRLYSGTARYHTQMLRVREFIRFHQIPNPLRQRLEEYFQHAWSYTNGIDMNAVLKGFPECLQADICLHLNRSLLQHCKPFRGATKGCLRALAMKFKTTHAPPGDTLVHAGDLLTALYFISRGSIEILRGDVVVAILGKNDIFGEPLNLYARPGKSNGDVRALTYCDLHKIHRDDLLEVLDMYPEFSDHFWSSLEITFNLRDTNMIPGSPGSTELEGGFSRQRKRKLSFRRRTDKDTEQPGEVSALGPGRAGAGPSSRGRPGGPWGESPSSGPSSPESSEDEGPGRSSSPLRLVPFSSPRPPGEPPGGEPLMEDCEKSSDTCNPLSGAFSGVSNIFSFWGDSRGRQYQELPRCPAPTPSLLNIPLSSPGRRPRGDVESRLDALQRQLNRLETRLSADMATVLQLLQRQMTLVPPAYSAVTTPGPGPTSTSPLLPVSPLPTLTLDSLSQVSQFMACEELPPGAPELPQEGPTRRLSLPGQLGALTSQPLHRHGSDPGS
Ikaros, sequence (Q96SW2 whole entry partner, species assumed): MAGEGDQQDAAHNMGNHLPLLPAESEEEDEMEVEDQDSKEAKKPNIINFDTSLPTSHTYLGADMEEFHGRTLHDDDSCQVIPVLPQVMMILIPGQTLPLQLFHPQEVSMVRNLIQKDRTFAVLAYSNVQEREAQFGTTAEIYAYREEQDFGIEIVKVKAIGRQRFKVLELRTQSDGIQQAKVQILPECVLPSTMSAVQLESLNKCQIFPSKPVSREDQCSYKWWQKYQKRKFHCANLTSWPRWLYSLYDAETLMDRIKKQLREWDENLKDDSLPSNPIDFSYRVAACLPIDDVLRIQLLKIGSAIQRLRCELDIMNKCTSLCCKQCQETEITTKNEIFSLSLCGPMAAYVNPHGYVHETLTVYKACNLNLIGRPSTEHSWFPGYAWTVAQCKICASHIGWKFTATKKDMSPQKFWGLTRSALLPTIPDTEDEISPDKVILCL
Ikaros, sequence (Q16531 whole entry partner, species assumed): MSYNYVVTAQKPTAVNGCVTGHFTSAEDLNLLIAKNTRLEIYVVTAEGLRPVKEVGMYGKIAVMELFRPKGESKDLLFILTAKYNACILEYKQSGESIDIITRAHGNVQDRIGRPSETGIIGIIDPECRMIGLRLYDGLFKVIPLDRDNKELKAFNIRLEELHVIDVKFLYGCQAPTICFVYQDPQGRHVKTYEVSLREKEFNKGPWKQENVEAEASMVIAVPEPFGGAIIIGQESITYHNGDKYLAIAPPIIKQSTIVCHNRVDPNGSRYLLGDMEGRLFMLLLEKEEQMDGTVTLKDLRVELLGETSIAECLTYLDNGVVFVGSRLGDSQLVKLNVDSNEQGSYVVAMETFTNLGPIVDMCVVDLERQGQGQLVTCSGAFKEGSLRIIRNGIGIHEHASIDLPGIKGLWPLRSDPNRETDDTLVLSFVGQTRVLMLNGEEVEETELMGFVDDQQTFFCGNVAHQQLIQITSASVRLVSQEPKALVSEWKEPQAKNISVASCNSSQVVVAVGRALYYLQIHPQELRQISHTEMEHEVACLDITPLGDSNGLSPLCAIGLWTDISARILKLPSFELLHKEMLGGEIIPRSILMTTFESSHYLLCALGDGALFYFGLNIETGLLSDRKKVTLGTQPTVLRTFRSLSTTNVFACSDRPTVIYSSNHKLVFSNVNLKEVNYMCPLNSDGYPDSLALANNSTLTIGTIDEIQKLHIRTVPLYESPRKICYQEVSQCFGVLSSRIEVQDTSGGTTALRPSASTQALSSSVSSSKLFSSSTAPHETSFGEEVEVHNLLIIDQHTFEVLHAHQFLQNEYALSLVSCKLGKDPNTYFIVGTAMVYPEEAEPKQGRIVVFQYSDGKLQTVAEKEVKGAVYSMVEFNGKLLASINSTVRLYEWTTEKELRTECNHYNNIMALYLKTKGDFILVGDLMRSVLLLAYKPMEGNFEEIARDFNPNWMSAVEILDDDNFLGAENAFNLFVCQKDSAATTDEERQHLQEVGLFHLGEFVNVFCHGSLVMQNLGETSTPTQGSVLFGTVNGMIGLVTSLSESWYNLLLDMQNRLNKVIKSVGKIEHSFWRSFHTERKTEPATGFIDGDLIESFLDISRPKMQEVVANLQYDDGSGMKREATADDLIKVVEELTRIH
Ikaros, sequence (Q13422 whole entry, species assumed): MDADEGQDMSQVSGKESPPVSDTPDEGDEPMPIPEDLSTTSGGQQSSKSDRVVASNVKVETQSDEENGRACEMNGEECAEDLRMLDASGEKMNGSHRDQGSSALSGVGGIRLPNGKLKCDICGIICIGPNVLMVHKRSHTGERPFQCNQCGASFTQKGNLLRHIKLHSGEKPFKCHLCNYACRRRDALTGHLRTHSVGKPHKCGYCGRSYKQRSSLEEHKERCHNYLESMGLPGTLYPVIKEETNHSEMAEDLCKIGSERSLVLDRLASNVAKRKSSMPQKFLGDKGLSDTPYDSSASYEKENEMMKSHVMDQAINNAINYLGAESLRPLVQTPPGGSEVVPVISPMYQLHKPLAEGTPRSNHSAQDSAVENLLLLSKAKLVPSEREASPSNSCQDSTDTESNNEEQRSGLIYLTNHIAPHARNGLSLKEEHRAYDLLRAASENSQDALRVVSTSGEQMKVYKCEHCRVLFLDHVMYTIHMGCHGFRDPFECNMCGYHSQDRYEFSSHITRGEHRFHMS
Aiolos, sequence (Q96SW2 whole entry partner): as the sequence (Q96SW2 whole entry partner, species assumed) above
Aiolos, sequence (Q16531 whole entry partner): as the sequence (Q16531 whole entry partner, species assumed) above
Aiolos, sequence (Q9UKT9 whole entry): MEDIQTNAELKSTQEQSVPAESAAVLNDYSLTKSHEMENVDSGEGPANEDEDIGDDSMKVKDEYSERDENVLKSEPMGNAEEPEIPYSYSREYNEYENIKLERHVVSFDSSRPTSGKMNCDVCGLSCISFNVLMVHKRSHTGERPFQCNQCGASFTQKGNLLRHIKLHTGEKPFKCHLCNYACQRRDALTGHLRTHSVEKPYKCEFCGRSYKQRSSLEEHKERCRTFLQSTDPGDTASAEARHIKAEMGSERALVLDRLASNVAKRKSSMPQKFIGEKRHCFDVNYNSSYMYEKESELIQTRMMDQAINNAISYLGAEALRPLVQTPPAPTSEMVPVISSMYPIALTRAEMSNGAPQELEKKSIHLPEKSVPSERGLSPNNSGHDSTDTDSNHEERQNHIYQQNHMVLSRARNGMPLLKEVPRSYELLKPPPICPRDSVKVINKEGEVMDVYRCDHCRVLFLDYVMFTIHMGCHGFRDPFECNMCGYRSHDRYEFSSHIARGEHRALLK

In the case of `O=C1CC[C@H](N2Cc3cc(N4CCN(CC5CCN(c6ccc([C@@H]7c8ccc(O)cc8CC[C@@H]7c7ccccc7)cc6)CC5)CC4)ccc3C2=O)C(=O)N1` [Compound A, (S)-3-(5-(4-((1-(4-((1R,2S)-6-hydroxy-2-phenyl-1,2,3,4-tetrahydronaphthalen-1-yl)phenyl)piperidin-4-yl)methyl)piperazin-1-yl)-1-oxoisoindolin-2-yl)piperidine-2,6-dione], the “degradation of Ikaros” value (Ikaros) is reported as “did not degrade”, the ECG evaluations ([1]; 28 days, up to 90 mg/kg/day) is reported as “did not elicit any changes in ECG evaluations” and the NOAEL at 28 days ([1]; in vivo, 28 days oral) is reported as 90 mg/kg/day. For the same compound, the “Biopharmaceutics Classification System class” value [2] was “Class IV”, the “ER degradation, median decrease” value (ER [3]) was 67% and the fraction unbound at 1 μM [4] was 0.082. The solubility [5] was 1.5 µg/mL (≈ 2.07 µM), the phototoxicity [6] was “not phototoxic” and the “degradation of Aiolos” value (Aiolos) was “did not degrade”. It also gave an NOAEL at 3 months ([7]; Beagle, dog, in vivo, oral, male dogs, 3 months) of 90 mg/kg/day, a Cmax [7, 12] of 4250 ng/mL and an AUC(0-t) [7, 12] of 73100 ng·h/mL. For the same compound, the Cmax [7, 13] was 4880 ng/mL, the AUC(0-t) [7, 13] was 83500 ng·h/mL and the ECG intervals ([7]; dog, 90 mg/kg/day, Day 85) was “nonadverse increases in QT-, QTc-, and PR-intervals”. For the same compound, the NOAEL ([7]; female dogs, 3 months) was “A NOAEL was not identified”, the half-life ([8]; fed, read-out: geometric mean T1/2 (converted)) was about 40 h and the Tmax ([8]; read-out: median Tmax across cohorts) was 6 to 8 h. The extent of epimerization [9] was “negligible”, the deaths [10] was “No deaths were reported” and the “ER degradation with excess lenalidomide or with carfilzomib” value (ER [11]) was “No degradation of ER”. The “maximum ER degradation” value (ER [11]) was over 90%, the half-life (clinical; 30 mg) was 31 h and the Tmax (clinical; 30 mg, Tmax) was 4 h. For the same compound, the half-life (clinical; 60 mg) was 33 h, the Tmax (clinical; 60 mg, Tmax) was 6 h and the half-life (clinical; 100 mg) was 29 h. The Tmax (clinical; 100 mg, Tmax) was 5.8 h, the half-life (clinical; 120 mg) was 27 h and the Cmax (clinical; 120 mg) was 404 ng/mL. For the same compound, the Tmax (clinical; 120 mg, Tmax) was 5.9 h, the half-life (clinical; 180 mg) was 26 h and the Cmax (clinical; 180 mg) was 555 ng/mL. For the same compound, the Tmax (clinical; 180 mg, Tmax) was 6 h, the half-life (clinical; 200 mg) was 23 h and the AUC (clinical; 200 mg) was 9110 ng·h/mL. The Cmax (clinical; 200 mg) was 534 ng/mL, the Tmax (clinical; 200 mg, Tmax) was 5.8 h and the AUC(0-t) (clinical; 250 mg, AUCtau (AUC0-8)) was 2920 ng·h/mL. The AUC(0-t) (clinical; 250 mg, AUCtau (AUC0-12)) was 20600 ng·h/mL, the Tmax (clinical; 250 mg, Tmax) was 6.9 h and the half-life (clinical; 360 mg) was 28 h. The Tmax (clinical; 360 mg, Tmax) was 5.8 h, the half-life (clinical; 500 mg) was 28 h and the Cmax (clinical; 500 mg) was 1050 ng/mL. For the same compound, the Tmax (clinical; 500 mg, Tmax) was 4.9 h, the half-life (clinical; 700 mg) was 12.4 h and the AUC (clinical; 700 mg) was 19600 ng·h/mL. For the same compound, the Cmax (clinical; 700 mg) was 1450 ng/mL, the Tmax (clinical; 700 mg, Tmax) was 5.8 h and the Tmax (clinical; Tmax) was 4.1 h. For the same compound, the Tmax (clinical; median Tmax across dose levels) was 4 to 7 h, the IC50 (hERG channel) was over 25.1 µM and the “unbound Cmax margin to hERG IC50” value (hERG channel; recommended Phase 3 dose of 200 mg) was “approximately 170 ×”.
